Test results taken from PMC8175350, “Drug repurposing screens identify chemical entities for the development of COVID-19 interventions” (Nature Communications, 2021).
Where a name gives a salt, the structure may show the parent alone. Read-outs that look alike come from different tables or passages of the source.

What was measured:
[1] = cited from earlier work
[2] = tested on: SARS-CoV-2; experiment: microbe, parasite or virus in culture; format: cell-based; details: for Emax: Severe acute respiratory syndrome coronavirus 2, HeLa-ACE2, 10 h, curve plateau at infinite concentration, read-out: HeLa-ACE2 TOA CoV-2 Sinf Average; for EC50: read-out: HeLa-ACE2 TOA CoV-2 EC50 GeoMean
[3] = HepG2 72 h CellTiter-Glo cytotoxicity; details: human, HepG2 cells
[4] = tested on: HepG2; experiment: HepG2 72 h CellTiter-Glo cytotoxicity; details: 72 h
[5] = tested on: SARS-CoV-2; experiment: microbe, parasite or virus in culture; format: cell-based; details: for Emax: Severe acute respiratory syndrome coronavirus 2, HeLa-ACE2, 24 h, read-out: HeLa-ACE2 CoV-2 Sinf Average
[6] = tested on: SARS-CoV-2; experiment: microbe, parasite or virus in culture; format: cell-based; details: for Emax: Severe acute respiratory syndrome coronavirus 2, Calu-3, 48 h, read-out: Calu-3 CoV-2 Sinf Average
[7] = tested on: HEK293T; experiment: HEK293T 72 h CellTiter-Glo cytotoxicity; details: 72 h
[8] = HEK293T 72 h CellTiter-Glo cytotoxicity; details: human, HEK293T cells
[9] = tested on: Calu-3 cells; experiment: Uninfected Calu-3 48 h Cell-Titer Glo cytotoxicity counter screen
[10] = as above; details: human, uninfected Calu-3 cells
[11] = tested on: Calu-3 cells; experiment: cells; details: Homo sapiens; for Emax: Calu-3, 48 h, read-out: Calu-3 cell count Sinf Average
[12] = tested on: HeLa-ACE2 cells; experiment: Total cell count in the HeLa-ACE2 TOA assay; format: cell-based; details: Homo sapiens
Text: Supplement 41467_2021_23328_MOESM3_ESM.xlsx, sheet "Table S1" | column: HeLa-ACE2 TOA cell count

[13] = tested on: HeLa-ACE2 cells; experiment: Uninfected HeLa-ACE2 24 h live/dead cytotoxicity counter screen; format: cell-based, human
[14] = as above; format: cell-based, human; details: human, uninfected HeLa-ACE2 cells
[15] = tested on: HeLa-ACE2 cells; experiment: cells; details: Homo sapiens; for Emax: HeLa-ACE2, 24 h, read-out: HeLa-ACE2 cell count Sinf Average
[16] = tested on: SARS-CoV-2; format: cell-based
[17] = tested on: HeLa-ACE2 cells; experiment: cells; format: cell-based, human; details: Homo sapiens, HeLa-ACE2; read-out: HeLa-ACE2 TOA cell count EC50 GeoMean
[18] = in vitro; details: human
[19] = curve plateau at infinite concentration
[20] = Severe acute respiratory syndrome coronavirus 2, HeLa-ACE2, reconfirmed hits, read-out: HeLa-ACE2 SARS-CoV-2 EC50
[21] = Severe acute respiratory syndrome coronavirus 2, Calu-3, reconfirmed hits, read-out: Calu-3 SARS-CoV-2 EC50
[22] = Calu-3 Uninf. cells CC50 (µM), reconfirmed hits
[23] = reconfirmed hits, read-out: HeLa-ACE2 Uninf. cells CC50
[24] = read-out: Approx. Cmax, human, oral, ref [36],[37],[42],[43] as in column Refs.
[25] = curve-fit effect at infinite concentration, average
[26] = Severe acute respiratory syndrome coronavirus 2, HeLa-ACE2, unrounded geometric mean, read-out: HeLa-ACE2 CoV-2 EC50 GeoMean
[27] = Severe acute respiratory syndrome coronavirus 2, Calu-3, unrounded geometric mean, read-out: Calu-3 CoV-2 EC50 GeoMean
[28] = Calu-3 uninfected cytotoxicity CC50 GeoMean, unrounded geometric mean
[29] = Calu-3, read-out: Calu-3 cell count EC50 GeoMean, unrounded geometric mean
[30] = unrounded geometric mean, read-out: HeLa-ACE2 uninfected cytotoxicity CC50 GeoMean
[31] = HeLa-ACE2, read-out: HeLa-ACE2 cell count EC50 GeoMean, unrounded geometric mean
[32] = Severe acute respiratory syndrome coronavirus 2, HeLa-ACE2, detail block
[33] = Severe acute respiratory syndrome coronavirus 2, HeLa-ACE2, detail block, read-out: HeLa-ACE2 CoV-2 EC50 GeoMean
[34] = selectivity index, uninfected HeLa-ACE2 CC50 / SARS-CoV-2 EC50
[35] = Severe acute respiratory syndrome coronavirus 2, Calu-3, detail block, read-out: Calu-3 CoV-2 EC50 GeoMean
[36] = selectivity index, uninfected Calu-3 CC50 / Calu-3 SARS-CoV-2 EC50
[37] = Calu-3 uninfected cytotoxicity CC50 GeoMean, detail block
[38] = Calu-3, read-out: Calu-3 cell count EC50 GeoMean, detail block
[39] = detail block, read-out: HeLa-ACE2 uninfected cytotoxicity CC50 GeoMean
[40] = HeLa-ACE2, read-out: HeLa-ACE2 cell count EC50 GeoMean, detail block

Row | Compound | Approx. t1/2 ([1]; human, ref [33]-[49]) | Emax [2] | CC50 at 72 h [3] | HepG2 72-hour cytotoxicity Sinf Average [4] | Emax [5, 19] | EC50 [5, 20] | Emax [6, 19] | EC50 [6, 21] | HEK293T 72-hour cytotoxicty Sinf Average [7] | CC50 at 72 h [8] | Calu-3 uninfected cytotoxicity Sinf Average [9, 19] | HeLa-ACE2 uninfected cytotoxicity Sinf Average [13, 19] | CC50 at 24 h [14, 23] | Emax [15] | TOA:HeLa-ACE2 EC50 Ratio [2] | EC50 [2, 32] | EC50 [6, 35] | EC50 [17] | CC50 at 48 h [10, 37] | EC50 [11, 38] | also measured
1 | CC(C)(C)Cn1c(N)nc2ccc(-c3[nH]c(C(C)(C)C)nc3-c3ccc(F)cc3)nc21 [Ralimetinib mesylate/LY2228820, Ralimetinib mesylate] | 190 h | 100% | 19.8 µM | -100% | 100% | 1870 nM | 100% | 3830 nM | -100% | 20.3 µM | -97% | -99% | 27.4 µM | -60% | – | – | – | – | – | – | Cmax ([1]; read-out: Approx. Cmax, human oral, ref [33]-[49]): 5000 nM; EC50 ([2]; Severe acute respiratory syndrome coronavirus 2, HeLa-ACE2): 0.787 µM; CC50 at 48 h [10, 22]: 13.8 µM; CC50 at 48 h ([10]; Calu-3 uninfected cytotoxicity CC50 GeoMean): 13.8 µM; Emax [11]: 95%; EC50 ([11]; Calu-3, read-out: Calu-3 cell count EC50 GeoMean): 5.55 µM; Emax ([12]; HeLa-ACE2, 10 h, curve plateau at infinite concentration, read-out: HeLa-ACE2 TOA cell count Sinf Average): 55%; EC50 ([12]; HeLa-ACE2, read-out: HeLa-ACE2 TOA cell count EC50 GeoMean): > 4.43 µM; CC50 at 24 h ([14]; read-out: HeLa-ACE2 uninfected cytotoxicity CC50 GeoMean): 27.4 µM; EC50 ([15]; HeLa-ACE2, read-out: HeLa-ACE2 cell count EC50 GeoMean): > 6.87 µM; HeLa-ACE2 synergy score with remdesivi [δ] ([16]; combination with remdesivir, synergy score δ): -0.846
2 | COC(=O)[C@]12CCC(C)(C)C[C@H]1[C@H]1C(=O)C=C3[C@@]4(C)C=C(C#N)C(=O)C(C)(C)[C@@H]4CC[C@@]3(C)[C@]1(C)CC2 [Bardoxolone methyl] | 39 h | – | – | – | – | 541 nM | – | 79 nM | – | – | – | – | 3.1 µM | 101% | – | – | – | – | – | – | Cmax [1, 24]: 50 nM; Emax [5, 25]: 100%; EC50 [5, 26]: 541 nM; Emax [6, 25]: 96%; EC50 [6, 27]: 79.4 nM; Calu-3 uninfected cytotoxicity Sinf Average [9, 25]: -97%; CC50 at 48 h [10, 22]: 3.06 µM; CC50 at 48 h [10, 28]: 3.06 µM; Emax [11]: 41%; EC50 [11, 29]: 0.116 µM; HeLa-ACE2 uninfected cytotoxicity Sinf Average [13, 25]: -101%; CC50 at 24 h ([14]; uninfected cells, Fig. 2b group, read-out: HeLa-ACE2 CC50): ≤ 3 µM; CC50 at 24 h [14, 30]: 3.1 µM; EC50 [15, 31]: 1.26 µM
3 | OCCN1CCN(CC/C=C2/c3ccccc3Sc3ccc(Cl)cc32)CC1 [Zuclopenthixol] | – | 99% | 12.5 µM | -100% | 100% | – | 100% | – | -100% | 18.6 µM | -100% | -100% | – | 100% | 2.929 | 6.1 µM | > 9060 nM | > 9.59 µM | 9.6 µM | > 9.98 µM | EC50 [5, 33]: 2080 nM; HeLa-ACE2 SI [5, 34]: > 8.08; Calu-3 SI [6, 36]: 1.06; CC50 at 24 h [14, 39]: > 16.8 µM; EC50 [15, 40]: > 9.59 µM
4 | CC(CN(C)C)CN1c2ccccc2CCc2ccccc21 (stereo not shown) [Trimipramine maleate] | – | 100% | 18.8 µM | -100% | 99% | – | 100% | – | -102% | 12.8 µM | -100% | -100% | – | – | 2.576 | 5.42 µM | > 9980 nM | > 9.59 µM | > 29 µM | > 9.98 µM | EC50 [5, 33]: 2110 nM; HeLa-ACE2 SI [5, 34]: 10.11; Calu-3 SI [6, 36]: 2.90; CC50 at 24 h [14, 39]: 21.3 µM; EC50 [15, 40]: > 9.59 µM
5 | C=Cc1cc(C(=O)Nc2ccc(C(=N)N)cc2)c(-c2ccc(C(=O)NCC3CC3)nc2C(=O)O)cc1OC [Avoralstat] | 14 h | – | – | – | – | > 9600 nM | – | 387 nM | – | – | – | – | > 40 µM | – | – | – | – | – | – | – | Cmax [1, 24]: 364 nM; EC50 [5, 26]: > 9590 nM; Emax [6, 25]: 88%; EC50 [6, 27]: 387 nM; Emax [11]: 91%; EC50 [11, 29]: 0.57 µM; CC50 at 24 h [14, 30]: > 39.8 µM; CC50 [18, 22]: > 30 µM; CC50 [18, 28]: > 29.9 µM; EC50 [15, 31]: > 9.59 µM
6 | COc1ccc2cc1Oc1ccc(cc1)C[C@H]1c3cc(c(OC)cc3CCN1C)Oc1c(OC)c(OC)cc3c1[C@H](C2)N(C)CC3 [Hanfangchin A] | – | 100% | 2.28 µM | -105% | 100% | – | – | – | -101% | 3.6 µM | -100% | -99% | – | 100% | 7.993 | > 9.41 µM | > 9980 nM | > 9.59 µM | 15.2 µM | > 9.98 µM | HeLa-ACE2 SI [5]: > 16.08; EC50 ([5]; Severe acute respiratory syndrome coronavirus 2, HeLa-ACE2, read-out: HeLa-ACE2 CoV-2 EC50 GeoMean, detail block): 1180 nM; Calu-3 SI [6]: 1.53; Emax [6]: 87%; CC50 at 24 h [14, 39]: > 18.9 µM; EC50 [15, 40]: > 9.21 µM
7 | CCc1ccc2c(c1)N(CC(C)CN(C)C)c1ccccc1S2 (stereo not shown) [Ethylisobutrazine hydrochloride] | – | 100% | 14.1 µM | -100% | 100% | – | 100% | – | -104% | 10.3 µM | -100% | -100% | – | 100% | 1.889 | 3.77 µM | > 9980 nM | > 9.59 µM | 15.7 µM | > 9.98 µM | EC50 [5, 33]: 2000 nM; HeLa-ACE2 SI [5, 34]: 10.48; Calu-3 SI [6, 36]: 1.57; CC50 at 24 h [14, 39]: 20.9 µM; EC50 [15, 40]: > 9.59 µM
8 | COC(=O)C1=C(C)NC(C)=C(C(=O)OCCN2CCN(C(c3ccccc3)c3ccccc3)CC2)C1c1cccc([N+](=O)[O-])c1 (stereo not shown) [Manidipine] | 3 h | – | – | – | – | 6890 nM | – | 5480 nM | – | – | – | – | > 17.1 µM | – | – | – | – | – | – | – | Cmax ([1]; human, in vivo, po): 10 nM; CC50 at 48 h ([18]; Calu-3 Uninf. cells CC50 (µM)): > 30 µM; Synergy score with remdesivir (δ) ([16]; HeLa-ACE2): −4.73
